Reference: patent US20260001898A1, “Heteroaryl compounds as inhibitors of TYK2/JAK1, composition and application thereof” (Accro Bioscience (HK) Limited, priority 2022, published 2026)

What was measured:
[1] = test system: IFNα induced TYK2/JAK1 mediated STAT activation; test: Luciferase assay in L929 ISRE cells stimulated with IFN-α; assay type: cell-based; conditions: Mus musculus, IFN-α 100 ng/mL; for inhibition at 0.05 µM: 50 nM compound, read-out: Inhibitory activity % (50 nM); for inhibition at 0.2 µM: 200 nM compound, read-out: Inhibitory activity % (200 nM); for inhibition at 1 µM: 1000 nM compound, read-out: Inhibitory activity % (1000 nM)
Method: • 1. L929 ISRE cells (5000 cells/well) were seeded on 96-well plates and incubated overnight at room temperature-; • 2. The cells were pretreated by adding different concentrations (10 nM, 50 nM, 100 nM, 200 nM or 1000 nM) of the test compounds for 2 hours; • 3. Added IFN-α (100 ng/mL) to stimulate cells for 6 hours; • 4. Removed the upper medium, add PBS (100 μL) and washed, then removed PBS; • 5. Added PLB lysis solution (50 μL) to each well, shook the well for 15 minutes; • 6. Transferred PLB lysis solution (30 μL) to a new 96-well whiteboard, added LAR II reagent (LAR II), then quickly read the 450 nm OD value with a plate washer; • 7. Added Stop & Glo reagent (30 μL), then read the 450 nm OD value using the plate washer. • 8. The final result was the OD value in step 6/OD value in step 7.

JAK1/JAK2 pathway = test: Western blot p-STAT1/STAT1 in IFN-γ-stimulated HT-29 cells; assay type: cell-based; conditions: IFN-γ 100 ng/mL
Method: HT-29 cells were digested by trypsin and suspended in Dulbecco's Modified Eagle Medium (DMEM) and counted. The tested compounds were added into the 6 well plates (400 000/per well). After 2 hours, IFN-γ (100 ng/mL) was added to stimulate cells for 30 minutes. The cells were collected and lysed with protein lysate. The protein was quantitatively tested by BCA kit. Finally, p-STAT1/STAT1 and internal reference protein β-actin were detected by Western blot.

TYK2/JAK2 pathway = test: Western blot p-STAT4/STAT4 in IL-12-stimulated mouse spleen cells; assay type: cell-based, mice; conditions: IL-12 50 ng/mL
Method: The spleen of mice was isolated and ground into single cells with bent tweezers. The single cells of the spleen were centrifuged for 5 minutes (400 g), and erythrocytes were lysed with Ammonium-Chloride-Potassium (ACK) solution and neutralized in 1640 medium, centrifuged for 5 minutes (400 g), and then re-suspended in 1640 medium. The spleen single cell suspension was counted, transferred to and incubated on a 6-well plate (5 million/well). The compounds to be tested were added. After 2 hours, IL-12 (50 ng/mL) was added to stimulate the cells for 1 h. The cells were collected and lysed with protein lysate. The protein was quantitatively tested by BCA kit. Finally, p-STAT4/STAT4 and internal reference protein […] were detected by Western blot.

JAK2/JAK2 pathway = test: Western blot p-STAT3/STAT3 in TPO-stimulated HEL cells; assay type: cell-based; conditions: TPO 100 ng/mL
Method: HEL cells were digested by trypsin, re-suspended in 1640 medium and counted. The compounds to be measured were added to 6 well plates (1 million/per well) for 2 hours, and then thrombopoietin (TPO)(final concentration: 100 ng/mL) was added to stimulate cells for 30 minutes. The cells were collected and lysed with protein lysate. The protein was quantitatively tested by bicinchoninic acid (BCA) kit. Finally, p-STAT3/STAT3 and internal reference protein β-actin were detected by Western blot.

Structure (SMILES) | inhibition at 0.05 µM [1] [%] | inhibition at 0.2 µM [1] [%] | inhibition at 1 µM [1] [%] | effect on downstream STAT1 phosphorylation induced by IFN-γ (JAK1/JAK2 pathway) (JAK1/JAK2 pathway) | inhibition of downstream STAT4 phosphorylation induced by IL-12 (TYK2/JAK2 pathway) (TYK2/JAK2 pathway) | effect on TPO-induced downstream STAT3 phosphorylation (JAK2/JAK2 pathway) (JAK2/JAK2 pathway)
COc1c(Nc2cc(NC(=O)C3CC3)ncc2C(N)=O)cccc1-c1cc(P(=O)(C2CC2)C2CC2)n(C)n1 [Compound A2, 6-(cyclopropanecarboxamido)-4-((3-(5-(dicyclopropylphosphoryl)-1-methyl-1H-pyrazol-3-yl)-2-methoxyphenyl)amino)nicotinamide] | 26 | 57 | 94 | inhibited JAK1/JAK2 pathway in a concentration-dependent manner |  | 
COc1c(Nc2cc(NC(=O)C3CC3)nnc2C(N)=O)cc(F)cc1-c1cc(P(=O)(C2CC2)C2CC2)n(C)n1 [Compound A8] | 84 | 88 | 96 | inhibited JAK1/JAK2 pathway in a concentration-dependent manner | effectively inhibited the downstream STAT4 phosphorylation induced by IL-12 | 
COc1c(Nc2cc(Nc3ccc(F)cn3)nnc2C(N)=O)cccc1-c1cc(P(=O)(C2CC2)C2CC2)n(C)n1 [Compound A9] |  |  |  | inhibited JAK1/JAK2 pathway in a concentration-dependent manner | effectively inhibited the downstream STAT4 phosphorylation induced by IL-12 | 
COc1c(Nc2cc(Nc3cc(C)ccn3)nnc2C(N)=O)cccc1-c1cc(P(=O)(C2CC2)C2CC2)n(C)n1 [Compound A12] | 25 | 33 | 93 | inhibited JAK1/JAK2 pathway in a concentration-dependent manner | effectively inhibited the downstream STAT4 phosphorylation induced by IL-12 | had no effect on TPO-induced downstream STAT3 phosphorylation
COc1c(Nc2cc(Nc3ccn(C)n3)nnc2C(N)=O)cccc1-c1cc(P(=O)(C2CC2)C2CC2)n(C)n1 [Compound A17] |  | 42 | 82 | inhibited JAK1/JAK2 pathway in a concentration-dependent manner | effectively inhibited the downstream STAT4 phosphorylation induced by IL-12 | had no effect on TPO-induced downstream STAT3 phosphorylation
COc1c(Nc2cc(Nc3cc(C)ccn3)nnc2C(N)=O)cccc1-c1cc(P(C)(C)=O)n(C)n1 [Compound A29] |  |  | 93 | inhibited JAK1/JAK2 pathway in a concentration-dependent manner | effectively inhibited the downstream STAT4 phosphorylation induced by IL-12 | had no effect on TPO-induced downstream STAT3 phosphorylation
COc1c(Nc2cc(Nc3cc(C#N)ccn3)nnc2C(N)=O)cccc1-c1cc(P(=O)(C2CC2)C2CC2)n(C)n1 [Compound A35] | 54 | 84 | 98 | inhibited JAK1/JAK2 pathway in a concentration-dependent manner | effectively inhibited the downstream STAT4 phosphorylation induced by IL-12 | had no effect on TPO-induced downstream STAT3 phosphorylation
[2H]C([2H])([2H])n1nc(-c2cccc(Nc3cc(Nc4cc(C#N)ccn4)nnc3C(N)=O)c2OC)cc1P(=O)(C1CC1)C1CC1 [Compound A49] | 33 | 86 | 87 | inhibited JAK1/JAK2 pathway in a concentration-dependent manner | effectively inhibited the downstream STAT4 phosphorylation induced by IL-12 | had no effect on TPO-induced downstream STAT3 phosphorylation
[2H]C([2H])([2H])n1nc(-c2cccc(Nc3cc(Nc4ccc(OC)cn4)nnc3C(N)=O)c2OC)cc1P(=O)(C1CC1)C1CC1 [Compound A50] |  |  | 77 | inhibited JAK1/JAK2 pathway in a concentration-dependent manner | effectively inhibited the downstream STAT4 phosphorylation induced by IL-12 | had no effect on TPO-induced downstream STAT3 phosphorylation
COc1c(Nc2cc(NC(=O)C3CC3)ncc2C(N)=O)cccc1-c1ccc(P(C)(C)=O)cc1 [Compound A61, 6-(cyclopropanecarboxamido)-4-((4′-(dimethylphosphoryl)-2-methoxy-[1,1′-biphenyl]-3-yl)amino)nicotinamide] | 8 | 23 | 59 |  |  | 
COc1c(Nc2cc(NC(=O)C3CC3)ncc2C(N)=O)cccc1-c1ccc(P(C)(C)=O)nc1 [Compound A62] | 3 | 5 | 56 |  |  | 
COc1c(Nc2cc(NC(=O)C3CC3)ncc2C(N)=O)cccc1-c1cnc(P(C)(C)=O)cn1 [Compound A63, 6-(cyclopropanecarboxamido)-4-((3-(5-(dimethylphosphoryl)pyrazin-2-yl)-2-methoxyphenyl)amino)nicotinamide] | 33 | 43 | 75 |  |  | 
COc1cccnc1Nc1cc(Nc2cccc(-c3cc(P(=O)(C4CC4)C4CC4)n(C)n3)c2OC)c(C(N)=O)nn1 [Compound A65] | 36 | 43 | 93 |  |  | 
COc1ccnc(Nc2cc(Nc3cccc(-c4cc(P(=O)(C5CC5)C5CC5)n(C)n4)c3OC)c(C(N)=O)nn2)c1 [Compound A66] | 59 | 82 | 96 |  |  | 
COc1cccc(Nc2cc(Nc3cccc(-c4cc(P(=O)(C5CC5)C5CC5)n(C)n4)c3OC)c(C(N)=O)nn2)n1 [Compound A67] | 88 | 95 | 95 |  |  | 
COc1cc(P(=O)(C2CC2)C2CC2)ccc1Nc1cc(Nc2cc(C)ccn2)nnc1C(N)=O [Compound B1, 4-((4-(dicyclopropylphosphoryl)-2-methoxyphenyl)amino)-6-((4-methylpyridin-2-yl)amino)pyridazine-3-carboxamide] |  |  | 0 |  |  | 
CCP(=O)(CC)c1ccc(Nc2cc(NC(=O)C3CC3)ncc2C(N)=O)c(OC)c1 [Compound B3, 6-(cyclopropanecarboxamido)-4-((4-(diethylphosphoryl)-2-methoxyphenyl)amino)nicotinamide] |  |  | 19 |  |  | 
COc1cc(P(=O)(C2CC2)C2CC2)ccc1Nc1cc(Nc2ccccn2)nnc1C(N)=O [Compound B4] |  |  | 8 |  |  | 
COc1cc(P(=O)(C2CC2)C2CC2)ccc1Nc1cc(NC(=O)C2CC2)nnc1C(N)=O [Compound B5] |  |  | 0 |  |  | 
COc1cc(P(=O)(C2CC2)C2CC2)ccc1Nc1cc(Nc2ccn(C)n2)nnc1C(N)=O [Compound B7] |  |  | 0 |  |  | 
N#CC[C@H](C1CCCC1)n1cc(-c2ncnc3[nH]ccc23)cn1 [Ruxolitinib, reference compound] |  |  |  | inhibited JAK1/JAK2 pathway in a concentration-dependent manner |  | can inhibit the JAK2/JAK2 pathway
